Reference: patent US4626540A, “Substituted 1-amino-4-nitro-acridinones and methods of treating bacterial infections and leukemia with them” (Warner-Lambert Company, priority 1984, dated 1986)
Where a name gives a salt, the structure may show the parent alone.

Columns and labels:
Bacillus cereus = assay: In vitro antibacterial (ABMF) microdilution test, Bacillus cereus; format: cell-based; details: Mueller-Hinton broth, 37° C., 16-24 hours, read-out: ABMF minimal inhibitory conc, B. cer.
Text: (§1) Still another test protocol is the in vitro antibacterial (ABMF) test which is a recognized standard microdilution susceptibility procedure in Mueller-Hinton broth against Gram-positive and Gram-negative bacterial test organisms. The procedure is a modification of a state-of-the-art procedure reported in Manual of Clinical Microbiology, Lennette, E. H., ed., by Barry, A. L. and C. Thornsberry at pages 463-474 and by Gavan, T. L. and A. L. Barry at pages 459-462, American Society for Microbiology, Washington, 1980.
(§2) In the test, a given bacterial culture is used to inoculate individual test wells of microdilution trays containing growth medium and test compound, the latter in a microdilution series: 1000, 333, 111, 37, 12, 4, 1.4, and 0.46 micrograms per milliliter. […] For convenience, values are reported for Escherichia coli, Corynebacterium Sp. ATCC 21698, Branhamella catarrhalis, Streptococcus pneumoniae, and Bacillus cereus.

Streptococcus pneumoniae = assay: In vitro antibacterial (ABMF) microdilution test, Streptococcus pneumoniae; format: cell-based; details: Mueller-Hinton broth, 37° C., 16-24 hours, read-out: ABMF minimal inhibitory conc, S. pneu.
Text: as §1, §2

Escherichia coli = assay: In vitro antibacterial (ABMF) microdilution test, Escherichia coli; format: cell-based; details: Mueller-Hinton broth, 37° C., 16-24 hours, read-out: ABMF minimal inhibitory conc, E. coli
Text: as §1, §2

[1] = system: Corynebacterium Sp. ATCC 21698; assay: In vitro antibacterial (ABMF) microdilution test, Corynebacterium Sp.; format: cell-based; details: ATCC21698, Mueller-Hinton broth, 37° C., 16-24 hours, read-out: ABMF minimal inhibitory conc, Coryn. Species
Text: as §1, §2

Branhamella catarrhalis = assay: In vitro antibacterial (ABMF) microdilution test, Branhamella catarrhalis; format: cell-based; details: Moraxella catarrhalis; Mueller-Hinton broth, 37° C., 16-24 hours; read-out: ABMF minimal inhibitory conc, B. cat.
Text: as §1, §2

[2] = system: L1210 murine leukemia cell lines; assay: In vitro antitumor screening (PDC test), L1210 murine leukemia cell growth; format: cell-based; details: Mus musculus, 72 h; L1210 cells, 37° C., three days; value is ID50 multiplied by 10^7
Method: Another test protocol is the in vitro antitumor screening (PDC test) of compounds of the present invention on L1210 murine leukemia cell lines. L1210 cells, a murine leukemia cell line, were grown in RPMI 1640 supplemented with 5% fetal bovine serum and gentamicin (50 μg/ml).
Drug dilutions were prepared in the apropriate solvent and 20 μl of each dilution were added to 24-well Linbro tissue culture plats, followed by the addition of M 2.0 ml of cell suspension containing 3×10^4 cells per ml. Solvent and medium controls were included in each test. After incubation at 37° C. for three days in 5% CO2, the contents of each well were removed and the cells counted in a ZBI Coulter counter. Percent growth was calculated relative to the controls and the levels of drug activity wre expressed as ID50 in moles per liter using probit paper.

[3] = system: lymphocytic leukemia P388; assay: In vivo lymphocytic leukemia P388 test; set-up: species or system CD2 F1 mice; details: Mus musculus, P388, ip, intraperitoneal, once daily for five days, survival time treated/control, read-out: P388 in vivo T/C × 100
Method: Another test protocol is the in vivo lymphocytic leukemia P388 test. the animals used are either male or female CD2 F1 mice, six or seven animals per test group. The tumor transplant is by intraperitoneal injection of dilute ascitic fluid containing cells of lymphocytic leukemia P388. The test compounds are administered intraperitoneally once daily for five consecutive days at various doses following tumor inoculation. The animals are weighed and survivors are recorded on a regular basis for 30 days. A compound is designated "toxic" if, at a given dose, all animals die prior to four days after the first injection of drug. A ratio of survival time for treated (T)/control (C) animals is calculated. A criterion for efficacy is a ratio T/C times 100 greater than or equal to 125. See Cancer Chemotherapy Reports, Part 3, 3, 1 (1972) for a comprehensive discussion of the protocol.

HCT-8 cells = assay: In vitro proliferating human colon adenocarcinoma (HCA) cell screen, HCT-8 cells; format: cell-based; details: 60-65 hours at 37° C., value is ID50 multiplied by 10^7;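 also: ID50 is the molar concentration giving 50% growth inhibition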
Method: One test protocol is the in vitro proliferating human colon adenocarcinoma (HCA) cell screen. In this test, HCT-8 cells (HCA cell line received from Yale University) are trypsinized using trypsin-EDTA. A single cell suspension is achieved by passing the cells through a 26-gauge needle with a 20-cc syringe. A cell suspension is prepared using RPMI 1640+10% FCS+50 μg/ml gentamicin sulfate with a cell concentration of approximately 5,000 cells/ml. The cell suspension is dispensed in Linbro 24-well plates; 1 ml/well. The plates are incubated for approximately 48 hours at 37° C. in a 5% CO2 atmosphere. At this time test compounds are added in the appropriate concentration. Ten μl of the appropriate dilution is added to each well for a titration test. The plates are reincubated an additional 60-65 hours at 37° C. in a 5% CO2 atmosphere. The cells are lysed using a mix of cationic surfactant, glacial acetic acid and sodium chloride. Two ml of the lysed cell suspension from each well is added to 8 ml of diluent. The number of nuclei is determined using a Coulter counter (ZBI model), and a percent growth for each drug concentration is calculated.

Structure (SMILES)	MIC (Bacillus cereus) [µg/mL]	MIC (Streptococcus pneumoniae) [µg/mL]	MIC (Escherichia coli) [µg/mL]	MIC [1] [µg/mL]	MIC (Branhamella catarrhalis) [µg/mL]	IC50 [2] [nM]	response vs control in vivo at 25 mg/kg [3] [%]	response vs control in vivo at 50 mg/kg [3] [%]	IC50 (HCT-8 cells) [nM]	response vs control in vivo at 12.5 mg/kg [3] [%]	response vs control in vivo at 100 mg/kg [3] [%]	response vs control in vivo at 200 mg/kg [3] [%]	response vs control in vivo at 1.56 mg/kg ([3]; 1.56 mg/kg) [%]	response vs control in vivo at 3.12 mg/kg ([3]; 3.12 mg/kg) [%]	response vs control in vivo at 6.25 mg/kg ([3]; 6.25 mg/kg) [%]
CCN(CC)CCNc1ccc([N+](=O)[O-])c2[nH]c3ccccc3c(=O)c12.CS(=O)(=O)O [Example 1, 1-[[2-(Diethylamino)ethyl]amino]-4-nitro-9-(10H)-acridinone, methanesulfonate (1:1)]	12.3	< 0.46	12.3	< 0.46	< 0.46	450	145	172							
CCCOc1ccc2[nH]c3c([N+](=O)[O-])ccc(NCCN(CC)CC)c3c(=O)c2c1.CS(=O)(=O)O [Example 5, 1-[[2-(Diethylamino)ethyl]amino]-4-nitro-7-propoxy-9(10H)-acridinone, methanesulfonate]	> 1000	1000	> 1000	0.46	> 1000		136	146	1950	122	164	186			
CCCCOc1ccc2[nH]c3c([N+](=O)[O-])ccc(NCCN(CC)CC)c3c(=O)c2c1.CS(=O)(=O)O [Example 6, 7-Butoxy-1-[[2-(diethylamino)ethyl]amino]-4-nitro-9-(10H)-acridinone, methanesulfonate]	> 1000	> 1000	> 1000	> 1000	> 1000	580	139	160							
CCCCOc1ccc2[nH]c3c([N+](=O)[O-])ccc(NCCN(C)C)c3c(=O)c2c1.CS(=O)(=O)O [Example 11, 7-Butoxy-1-[[2-(dimethylamino)ethyl]amino]-4-nitro-9(10H)-acridinone, methanesulfonate]	> 1000	> 1000	> 1000	> 1000	> 1000	1600	130	175							
COc1ccc2[nH]c3c([N+](=O)[O-])ccc(NCC[N+](C)(C)[O-])c3c(=O)c2c1 [Example 14, 1-[[2-(Dimethylamino)ethyl]amino]-7-methoxy-4-nitro-9(10H)-acridinone, N^ω -oxide, 3-chlorobenzoate salt]	333	< 0.46	12.3	1.4	12.3			157							
CN(C)CCCNc1ccc([N+](=O)[O-])c2[nH]c3ccc(OC(=O)C(C)(C)C)cc3c(=O)c12 [Example 25, [8-[[3-(Dimethylamino)propyl]amino]-9,10-dihydro-5-nitro-9-oxo-2-acridinyl]-2,2-dimethylpropanoate, methanesulfonate (1:1), hemihydrate]	111	333	111	333	333	15				248			156	173	214
CCN(CC)CCNc1ccc([N+](=O)[O-])c2[nH]c3ccc(OC)c(Cl)c3c(=O)c12 [Example 27, 1-Chloro-8-[[2-Diethylamino)ethyl]amino]-2-methoxy-5-nitro-9(10H)acridinone, methanesulfonate]	4.1	1.4	4.1	< 0.46	1.4	420									
CCN(CC)CCNc1ccc([N+](=O)[O-])c2[nH]c3cc(O)ccc3c(=O)c12.CS(=O)(=O)O [Example 28, 1-[[2-(Diethylamino)ethyl]amino]-6-hydroxy-4-nitro-9(10H)acridinone, methanesulfonate (1:1)]	1.4	< 0.46	1.4	< 0.46	< 0.46	360									
CCN(CC)CCNc1ccc([N+](=O)[O-])c2[nH]c3cccc(O)c3c(=O)c12.CS(=O)(=O)O [Example 29, 1-[[2-(Diethylamino)ethyl]amino]-8-hydroxy-4-nitro-9-(10H)-acridinone, methanesulfonate]	< 0.46	< 0.46	1.4	< 0.46	< 0.46	88									
CCN(CC)CCNc1ccc([N+](=O)[O-])c2c1c(=O)c1ccccc1n2C [Example 30, 1-[[2-(Diethylamino)ethyl]amino]-10-methyl-4-nitro-9(10H)-acridinone, methanesulfonate (1:1), hydrate (1:1)]	111	37	111	111	111							147			
CCN(CC)CCNc1ccc([N+](=O)[O-])c2c1c(=O)c1cc(OC)ccc1n2C.CS(=O)(=O)O [Example 31, 1-[[2-(Diethylamino)ethyl]amino]-7-methoxy-10-methyl-4-nitro-9(10H)-acridinone, methanesulfonate (1:1)]	> 1000	> 1000	> 1000	1000	> 1000						128	128			
CN(C)CCNc1ccc([N+](=O)[O-])c2c1c(=O)c1ccccc1n2C.CS(=O)(=O)O [Example 32, 1-[[2-(Dimethylamino)ethyl]amino]-10-methyl-4-nitro-9(10H)-acridinone, methanesulfonate (1:1)]	> 1000	12.3	37	333	> 1000	3200		126			146				
COc1ccc2c(c1)c(=O)c1c(NCCN(C)C)ccc([N+](=O)[O-])c1n2C [Example 33]						1800			2270		137	144			
